In this test the target is Solute carrier family 2, facilitated glucose transporter member 2 (Homo sapiens) (UniProt P11168). The test is described as follows: SLC2A2-mediated glucose transport in cells – cell-based, flow cytometry, glucose FRET sensor, HEK293 JumpIN TRex, wild type, dose response (AID 1794829). The settings on record: HEK293 JumpIN SLC2A2-OE. On the technique in general: Flow cytometry measures light scatter and fluorescence of single cells or particles in a stream.

Records with an inconclusive call do not appear.

Chain of Solute carrier family 2, facilitated glucose transporter member 2 (Homo sapiens) (P11168 whole entry, looked up): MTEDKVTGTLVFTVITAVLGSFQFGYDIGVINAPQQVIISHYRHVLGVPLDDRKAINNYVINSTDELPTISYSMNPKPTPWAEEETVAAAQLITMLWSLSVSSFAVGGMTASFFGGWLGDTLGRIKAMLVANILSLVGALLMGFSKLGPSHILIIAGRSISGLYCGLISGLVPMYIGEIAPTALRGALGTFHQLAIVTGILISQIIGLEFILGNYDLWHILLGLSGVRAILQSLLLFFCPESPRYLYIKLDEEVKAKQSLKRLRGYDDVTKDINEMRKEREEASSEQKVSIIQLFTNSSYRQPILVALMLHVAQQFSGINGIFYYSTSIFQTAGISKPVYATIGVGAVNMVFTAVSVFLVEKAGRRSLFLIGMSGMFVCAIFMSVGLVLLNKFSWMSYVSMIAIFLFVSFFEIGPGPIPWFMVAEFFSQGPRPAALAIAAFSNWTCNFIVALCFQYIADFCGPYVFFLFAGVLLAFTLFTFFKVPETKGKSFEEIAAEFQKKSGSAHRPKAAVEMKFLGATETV

As to `OC[C@H]1OC(O)[C@H](O)[C@@H](O)[C@@H]1O` (stereo partly specified), the EC50 (substrate-induced FRET increase) is 710 µM.

(Values after PubChem BioAssay AID1794829.)
